Test results published in US12144792B2, “Therapeutic agents for neurodegenerative diseases” (priority 2016, dated 2024).

Assays:
[1] = system: patients with progressive supranuclear palsy; experiment: Case studies, clinical examination; assay type: in vivo, human; conditions: 3 then 5 g per day; for gait and hypokinetic rigid syndrome: 17 days
Experimental: After 27 days of acetyl-leucine treatment, medication was stopped and the patient was re-examined 60 days later. […] Gait analysis was performed before treatment commenced. After 17 days of treatment, medication was stopped and the patient was re-examined 4 days later. […] Gait analysis was performed before treatment commenced. After three weeks of treatment, medication was stopped and the patient was re-examined.

Npc1^−/− mice = experiment: Weight data; assay type: in vivo, mouse; conditions: 0.1 g/kg from weaning, vs untreated group
Excerpt: Separate groups of Npc1^−/− and Npc1^+/+ mice were left untreated, as controls. Animals were weighed twice a week. Weights were averaged (mean) across all mice in each group and compared.

[2] = system: Hexb^−/− mouse (Sandhoff disease model); experiment: Step cycle; assay type: in vivo; conditions: Sandhoff mice, 0.1 g/kg from 3 weeks, 12 weeks of age
Experimental: This study made use of a mouse model of Sandhoff disease, the Hexb^−/− mouse, as described in Jeyakumar et al. (Jeyakumar, M. et al. (1999) Proc. Natl. Acad. Sci. USA 96: 6388-6393). Step cycle is the length of time taken during locomotion by a limb from the time it leaves the ground until it leaves the ground on the next occasion. Step cycle time was assessed at 12 weeks of age in untreated and acetyl-leucine treated Sandhoff model mice. Acetyl-leucine treatment constituted 0.1 g/kg body weight acetyl-leucine from 3 weeks of age.

[3] = system: patients with multisystemic atrophy cerebellar type (MSA-C); experiment: Case studies, clinical examination; assay type: in vivo, human
[4] = system: fibroblast cell line from an NPC patient; experiment: Lysosomal volume via LysoTracker; assay type: cell-based, human; conditions: fibroblasts from NPC patient of mild clinical severity; 1 mM
Experimental: A fibroblast cell line from an NPC patient was treated for 3 days with N-acetyl-DL-leucine (1 mM) and relative lysosomal volume was quantified via LysoTracker, a fluorescent dye that accumulates in acidic organelles. Increased LysoTracker fluorescence is indicative of an increase in lysosomal size and/or number, and is a hallmark of NPC cells.

patients with vertigo = conditions: used in France to treat acute vertigo since 1957; long-term safety not determined; cited from earlier work
[5] = system: patients with downbeat nystagmus; experiment: Case studies, clinical examination (visual acuity, posturography); assay type: in vivo, human
Excerpt: The patient was diagnosed with downbeat nystagmus: the patient was severely impaired by blurred vision (oscillopsia) due to the nystagmus, and experienced difficulties while reading and writing. The patient's visual acuity was: right 0.75, left 0.67, binocular 0.83, and the downbeat nystagmus was documented by video-oculography. […] […] […] The patient was able to suppress the nystagmus by visual fixation. In addition, the patient's spatial orientation was improved.

[6] = system: Mucopolysaccharidosis Type IIIB (MPS IIIB) patient fibroblasts; experiment: Lysosomal volume via LysoTracker; assay type: cell-based, human; conditions: 1 mM, 6 days, vs untreated
[7] = system: patients with cerebellar ataxia; conditions: cited from earlier work
[8] = system: patient with Spinocerebellar Ataxia (SCA) 1; experiment: Case study, clinical examination; assay type: in vivo, human; conditions: Ex. 16, SCA 1
Excerpt: Three months later the medication was stopped.

[9] = system: Npc1^−/− (BALB/cNctr-Npc1^m1N) mouse; experiment: Coat condition and disease indications by observation; assay type: in vivo
Excerpt: Separate groups of Npc1^-/- and Npc1^+/+ mice were left untreated, as controls.

[10] = system: Tay-Sachs disease patient fibroblasts; experiment: Glycosphingolipid (GSL) levels via HPLC; assay type: cell-based, human; conditions: 1 mM for 6 days, p<0.05
[11] = system: AB variant of Tay-Sachs disease patient fibroblasts; experiment: Glycosphingolipid (GSL) levels via HPLC; assay type: cell-based, human; conditions: 1 mM for 6 days
[12] = system: microtubule-associated protein 1A/1B-light chain 3-phosphatidylethanolamine conjugate (LC3-II); experiment: LC3-II levels relative to tubulin loading control; assay type: in vivo, mouse; conditions: NPC1−/− mice, 0.1 g/kg body weight daily from 3 weeks of age; sacrificed at 8 weeks
Experimental: The Niemann-Pick Disease Type C (NPC) mouse model shares a number of pathological features with Alzheimer's disease (AD) as described herein. […] Mice were sacrificed at 8 weeks of age. Levels of amyloid precursor protein C-terminal fragments (APP-CTFs) were evaluated relative to total amyloid precursor protein (APP) levels in the cerebellum for wild type, untreated wild type NPC1^−/− mice, and AL-treated wild type NPC1^−/− mice. Levels of microtubule-associated protein 1A/1B-light chain 3-phosphatidylethanolamine conjugate (LC3-II) were also evaluated relative to levels of tubulin loading control for wild type, untreated wild type NPC1^−/− mice, and AL-treated wild type NPC1^−/− mice.

[13] = Ex. 12 Patient 1, approximately 14 weeks after starting

## CC(=O)NC(CC(C)C)C(=O)O (racemic) [acetyl-DL-leucine]
[1]; Ex. 11 Patient 1, PSP, 27 days
  dizziness and gait: significant reduction of dizziness and slight improvement of gait
[1]; Ex. 11 Patient 2, PSP
  gait and hypokinetic rigid syndrome: no significant improvement of gait or hypokinetic rigid syndrome
[1]; Ex. 11 Patient 3, PSP
  gait and hypokinetic rigid syndrome: no significant improvement of gait or hypokinetic rigid syndrome
[1]; Ex. 11 Patient 4, PSP, after three weeks
  gait and falls: gait with increased subjective security and with reduced frequency of falls
Npc1^−/− mice
  delay of weight loss symptoms: delayed these weight loss symptoms by two weeks
[2]; p<0.001 vs untreated
  average step cycle time: significantly faster average step cycle times
[2]; p<0.01 vs untreated
  hind step cycle time: significantly faster hind step cycle times
[2]; p<0.05 vs untreated
  front step cycle time: significantly faster front step cycle times
[3]; Ex. 8 Patient 1, MSA-C, 5 g per day, after one week
  speech: significant improvement in speech
[3]; Ex. 8 Patient 2, MSA-C, 3 then up to 5 gram per day, after 3 weeks
  gait: significant improvement of gait
[3]; Ex. 8 Patient 2, MSA-C, after 3 weeks, before approximately 10 falls a month
  falls: the falls completely stopped
[3]; Ex. 8 Patient 2, MSA-C, one week after stopping
  symptoms after stopping medication: deterioration of gait and dizziness
[4]
  LysoTracker fluorescence (lysosomal volume): significant decrease in LysoTracker fluorescence
Patients with vertigo
  safety profile: excellent safety profile
[5]; Ex. 12 Patient 1, downbeat nystagmus, 3 then 5 gram per day, after 10 days
  patient-reported benefit: significant benefit
[5]; [13]
  nystagmus, clinical examination by two independent examiners: reduction of the nystagmus
  posturography: reduction of postural sway
[5]; Ex. 12 Patient 1, continued treatment at 5 gram per day
  side-effects: no side-effects resulted
[5]; Ex. 12 Patient 2, downbeat nystagmus, 3 g/day first week, 5 g/day thereafter
  symptoms: improvement of gait
[6]
  LysoTracker fluorescence (lysosomal volume): statistically significant reduction in LysoTracker fluorescence
[7]; another case series (Pelz et al. 2015)
  benefit in cerebellar ataxia: did not find benefit
[7]; case series with cerebellar patients (Strupp et al. 2013)
  cerebellar ataxia symptoms: symptomatic improvement of cerebellar ataxia
[7]; quantitative gait analysis (Schniepp et al. 2015)
  temporal gait variability: improved temporal gait variability
[8]; 5 g/day, three weeks on medication
  symptoms: all symptoms significantly improved
[8]; over two years on the same dosage
  side-effects: without any side-effects
[8]; two weeks after the medication was stopped
  signs and symptoms after stopping: the intensity of the signs and symptoms were the same as before therapy
[9]; Npc1−/− mice treated from weaning, untreated show it from 5-6 weeks of age
  onset of discernible indication of disease: did not display such symptoms until two or more weeks later
[9]; Npc1−/− mice, 0.1 g/kg in chow from weaning, nine weeks of age
  coat condition: smooth and glossy coat
[10]
  GSL levels: this decrease was statistically significant
[11]
  GSL levels: trend towards decreased GSL levels
[12]
  LC3-II levels relative to tubulin: lowering of LC3-II
